Laboratory results reported in ChEMBL document CHEMBL3137667, “[Drug-induced liver injury; fourteenth updated edition of the bibliographic database of liver injuries and related drugs]” (Gastroenterol Clin Biol, 2004).

Assays:
[1] = Highest frequency of acute liver toxicity observed during clinical trials, expressed as a percentage. [column '% AIGUE' in source]; conditions: human
[2] = human
[3] = Highest frequency of moderate liver toxicity observed during clinical trials, expressed as a percentage. [column '% BIOL' in source]; conditions: human
[4] = Times to onset, minimal and maximal, observed in the indexed observations. [column 'DELAI' in source]; conditions: human
[5] = Comments (NB not yet translated). [column 'COMMENTAIRES' in source]; conditions: human
[6] = human; remark: listed apart in the source
[7] = human, serum, 4383 h
[8] = Presence of at least one case with successful reintroduction. [column 'REINT' in source]; conditions: human
[9] = human; remark: listed apart in the source
[10] = human; remark: listed apart in the source
[11] = Proposed mechanism(s) of liver damage. [column 'MEC' in source]; conditions: human
[12] = human; remark: listed apart in the source
[13] = human; remark: listed apart in the source
[14] = human; remark: listed apart in the source
[15] = human; remark: listed apart in the source
[16] = human; remark: listed apart in the source
[17] = human, serum
[18] = human; remark: listed apart in the source
[19] = human, serum; remark: listed apart in the source
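Wherever Hepatotoxicity (association with vascular disease) is given: count of indexed literature references reporting vascular liver injury in humans, e.g. peliosis hepatitis, hepatic veno-occlusive disease or Budd-Chiari syndrome.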
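Wherever Hepatotoxicity (benign tumour) is given: value is a count of indexed literature references citing a benign tumour confirmed by histopathology.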
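Wherever Hepatotoxicity (choleostasis) is given: human cholestatic liver injury, shown by histopathology or by peak ALT or AST elevation over alkaline phosphatase ratio below 2, value counts indexed literature reports.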
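Wherever Hepatotoxicity (chronic liver disease) is given: chronic liver injury confirmed by histopathology or persistently raised serum aminotransferase activity beyond 6 months, value given as the count of indexed literature references.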
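Wherever Hepatotoxicity (cirrhosis) is given: value is a count of indexed literature references reporting cirrhosis confirmed by histopathology.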
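Wherever Hepatotoxicity (cytolytic) is given: human cytolytic liver injury, shown by histopathology or by a ratio above 5 of peak ALT or AST elevation to alkaline phosphatase elevation, value counts indexed references.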
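Wherever Hepatotoxicity (granulomatous hepatitis) is given: value is a count of indexed literature references reporting granulomatous liver disease confirmed by histopathology.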
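Wherever Hepatotoxicity (malignant tumour) is given: malignant tumour confirmed by histopathology, value gives the count of indexed literature references reporting it.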
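Wherever Hepatotoxicity (severe hepatitis) is given: human clinical data: severe hepatitis, meaning potentially life-threatening liver failure or clinically observed cases, the value counts how many indexed literature references report it.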
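Wherever Hepatotoxicity (steatosis) is given: steatosis confirmed by histopathology, value is the count of indexed references.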

Row | Compound | Hepatotoxicity (acute) [1] [%] | Hepatotoxicity (steatosis) [2] | Hepatotoxicity (time to onset) [4] | Hepatotoxicity (comment) [5] | Hepatotoxicity (choleostasis) [6] | Hepatotoxicity (chronic liver disease) [7] | Hepatotoxicity (successful reintroduction) [8] | Hepatotoxicity (granulomatous hepatitis) [10] | Hepatotoxicity (mechanism) [11] | Hepatotoxicity (animal toxicity known) [12] | Hepatotoxicity (cirrhosis) [13] | Hepatotoxicity (benign tumour) [14] | Hepatotoxicity (malignant tumour) [15] | Hepatotoxicity (cytolytic) [16] | Hepatotoxicity (moderate) [17] | Hepatotoxicity (association with vascular disease) [18] | Hepatotoxicity (acute) [19] | Hepatotoxicity (acute) ([1]; Liver) [%] | Hepatotoxicity (moderate) ([3]; Liver) [%] | Hepatotoxicity (severe hepatitis) ([9]; Liver) | further results
1 | FC(F)OC(F)(F)C(F)Cl (centres undefined) | 0.7 | 2 | 2 hours - 19 days | RC/HALOTHANE AC_ANTI-TFA | 7 | 0 | yes | 1 | Allergic, Reactive metabolite | yes | 0 | 0 | 0 | 18 | 15 | 0 | 21 |  |  |  | Hepatotoxicity (moderate) [3]: 58%; Hepatotoxicity (severe hepatitis) [9]: 10
2 | O=C(O)COc1ccc(C(=O)c2cccs2)c(Cl)c1Cl |  | 1 | 2 weeks - 1 year | AC_ANTI-MFR2 | 8 | 7 | yes | 0 | Allergic, Reactive metabolite | yes | 4 | 0 | 0 | 18 | 9 | 0 | 18 | 0 | 7 | 9 | 
3 | CCCCc1oc2ccccc2c1C(=O)c1cc(I)c(OCCN(CC)CC)c(I)c1 [AMIODARONE] |  | 4 | 1 day - 10 years | RC/AJMALINE #S.REYE |  | 8 | yes |  | Allergic, Dose-dependant | yes | 17 | 0 | 0 |  | 55 | 0 | 34 | 6 | 55 | 14 | Hepatotoxicity (choleostasis) ([6]; Liver): 6; Hepatotoxicity (granulomatous hepatitis) ([10]; Liver): 2; Hepatotoxicity (cytolytic) ([16]; Liver): 20
4 | CN(C)CCC=C1c2ccccc2CCc2ccccc21 [AMITRIPTYLINE] | 3 | 0 | 1 week - 10 months | CHOLESTASE_PROLONGEE CHOLANGITE | 12 | 0 | yes | 0 | Allergic | yes | 0 | 0 | 0 | 9 | 11 | 0 | 18 |  |  |  | Hepatotoxicity (moderate) [3]: 26%; Hepatotoxicity (severe hepatitis) [9]: 6
5 | Cn1cnc([N+](=O)[O-])c1Sc1ncnc2nc[nH]c12 [AZATHIOPRINE] |  | 3 | 2 hours - 8 years | HNR REACTIVATION_HVB CHOLANGITE MVO PELIOSE |  | 3 | yes |  |  | yes | 4 | 18 | 6 |  | 40 | 27 | 61 | 11.1 | 28 | 5 | Hepatotoxicity (choleostasis) ([6]; Liver): 34; Hepatotoxicity (granulomatous hepatitis) ([10]; Liver): 2; Hepatotoxicity (mechanism) ([11]; Liver): Allergic, Dose-dependant; Hepatotoxicity (cytolytic) ([16]; Liver): 19
6 | C[C@H](CS)C(=O)N1CCC[C@H]1C(=O)O [CAPTOPRIL] |  | 1 | 9 days - 26 months | PSEUDOCHOLANGITE RC/ENALAPRIL/LISINOPRIL | 16 | 1 | yes | 0 | Allergic | yes | 1 | 0 | 0 | 7 | 5 | 0 | 26 | 0.1 | 4 | 1 | 
7 | CN(C)CCCN1c2ccccc2Sc2ccc(Cl)cc21 [CHLORPROMAZINE] |  | 1 | 1 day - 28 years | RC/PROMAZINE/THIORIDAZINE AC_ANTI-N #CBP DUCTOPENIE | 50 | 6 | yes | 2 | Allergic, Toxic Metabolite | yes | 8 | 0 | 0 | 13 | 9 | 0 | 58 | 5.3 | 42 | 4 | 
8 | CN/C(=N/CCSCc1nc[nH]c1C)NC#N [CIMETIDINE] |  | 0 | 2 days - 2 years | RC/FAMOTIDINE I/MEBENDAZOLE |  | 1 | yes |  |  | yes | 0 | 0 | 0 |  | 29 | 0 | 28 | 0 | 38 | 3 | Hepatotoxicity (choleostasis) ([6]; Liver): 10; Hepatotoxicity (granulomatous hepatitis) ([10]; Liver): 0; Hepatotoxicity (mechanism) ([11]; Liver): Allergic, Dose-dependant, Toxic Metabolite; Hepatotoxicity (cytolytic) ([16]; Liver): 20
9 | CC[C@H]1OC(=O)[C@H](C)[C@@H](O[C@H]2C[C@@](C)(OC)[C@@H](O)[C@H](C)O2)[C@H](C)[C@@H](O[C@@H]2O[C@H](C)C[C@H](N(C)C)[C@H]2O)[C@](C)(OC)C[C@@H](C)C(=O)[C@H](C)[C@@H](O)[C@]1(C)O [CLARITHROMYCIN] | 5.6 | 0 | 1 day - 10 weeks | AC_ANTI-N | 6 | 0 | yes | 0 | Allergic, Dose-dependant | yes | 0 | 0 | 0 | 9 | 47 | 0 | 13 |  |  |  | Hepatotoxicity (moderate) [3]: 50.6%; Hepatotoxicity (severe hepatitis) [9]: 4
10 | O=P1(N(CCCl)CCCl)NCCCO1 (centres undefined) [CYCLOPHOSPHAMIDE ANHYDROUS] |  | 0 | 2 days - 21 years | CHC HNR MVO REACTIVATION_HVB |  | 0 | yes |  |  | yes | 0 | 0 | 4 |  | 16 | 44 | 18 | 2.6 | 85 | 11 | Hepatotoxicity (choleostasis) ([6]; Liver): 2; Hepatotoxicity (granulomatous hepatitis) ([10]; Liver): 0; Hepatotoxicity (mechanism) ([11]; Liver): Dose-dependant; Hepatotoxicity (cytolytic) ([16]; Liver): 15
11 | Cc1onc(-c2c(F)cccc2Cl)c1C(=O)N[C@@H]1C(=O)N2[C@@H]1SC(C)(C)[C@@H]2C(=O)O [FLOXACILLIN] | 0 | 2 | 12 hours - 2 months | CHOLESTASE_PROLONGEE CHOLANGITE #CBP | 20 | 1 | yes | 1 | Allergic | yes | 2 | 0 | 0 | 2 | 4 | 0 | 26 |  |  |  | Hepatotoxicity (moderate) [3]: 3.4%; Hepatotoxicity (severe hepatitis) [9]: 2
